Data from patent US9573887B2, “Naphthalene derivative” (Daito Chemix Corporation, priority 2010, dated 2017).
pIC50: −log10 of the molar value. Where a name gives a salt, the structure may show the parent alone.

These compounds were tested against T1, Mouse VCP (Mus musculus, UniProt Q01853) (assay: ATPase activity of purified His-tagged VCP, [γ-32P]ATP, liberated phosphate by liquid scintillation). Settings: compounds of Comparative Examples; determined in the same manner as the Examples.
T1 construct: histidine tag (N); made in house; host or cells: Sf-9 insect cells (baculovirus vector pVL1392)
T1 sequence (Q01853 whole entry): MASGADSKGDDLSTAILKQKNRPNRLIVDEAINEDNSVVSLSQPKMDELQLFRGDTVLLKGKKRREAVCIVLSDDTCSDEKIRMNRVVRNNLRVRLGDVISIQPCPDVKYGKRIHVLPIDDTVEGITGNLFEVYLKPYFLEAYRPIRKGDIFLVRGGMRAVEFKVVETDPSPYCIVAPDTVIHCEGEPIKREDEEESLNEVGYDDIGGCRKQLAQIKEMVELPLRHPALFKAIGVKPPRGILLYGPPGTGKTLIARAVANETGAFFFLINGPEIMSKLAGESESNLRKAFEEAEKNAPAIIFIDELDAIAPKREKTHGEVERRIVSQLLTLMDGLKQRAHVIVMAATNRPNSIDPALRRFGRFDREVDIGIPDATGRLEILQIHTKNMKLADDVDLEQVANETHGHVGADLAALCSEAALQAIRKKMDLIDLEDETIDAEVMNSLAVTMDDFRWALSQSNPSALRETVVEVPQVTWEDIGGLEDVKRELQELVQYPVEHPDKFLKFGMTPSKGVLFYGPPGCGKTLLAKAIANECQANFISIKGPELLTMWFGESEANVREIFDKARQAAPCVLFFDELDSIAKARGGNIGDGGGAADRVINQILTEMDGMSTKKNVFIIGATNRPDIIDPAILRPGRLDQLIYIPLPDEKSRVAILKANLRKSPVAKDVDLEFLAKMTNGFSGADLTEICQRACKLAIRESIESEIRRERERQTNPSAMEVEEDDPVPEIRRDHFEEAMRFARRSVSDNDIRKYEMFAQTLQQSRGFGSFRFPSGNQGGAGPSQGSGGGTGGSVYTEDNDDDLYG
Format: biochemical
How it was run: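 Liberated 32P-phosphate, extracted as a molybdate complex and counted by liquid scintillation, was the readout. Reactions used 500 ng Sf-9-expressed, Ni-purified His-VCP (mouse), 100 μM [γ-32P]ATP and varied test concentrations for 10 min at 37° C in HEPES pH 7.4 buffer with Mg2+ and DTT. IC50 derived by curve fitting.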
For `Nc1ccc(S(=O)(=O)O)c2ccccc12` [Example 20, sodium salt], the pIC50 was < 5.00.

Same assay, conditions: compounds of Examples; ATPase inhibitory activity; 500 ng VCP, 100 μM ATP, 37° C., 10 minutes
Work on `Nc1c(/N=N/c2ccc(/C=C/c3ccccc3)nc2)cc(S(=O)(=O)O)c2ccccc12` [Example 30, 4-amino-3-(6-styrylpyridine-3-ylazo)naphthalenesulfonic acid sodium salt] yielded a pIC50 of 5.94.
`Nc1c(/N=N/c2ccc(-c3cccc(CN4CCOCC4)c3)nc2)cc(S(=O)(=O)O)c2ccccc12` [Example 11, 4-amino-3-[6-(3-morpholine-4-ylmethylphenyl)pyridine-3-ylazo]naphthalene-1-sulfonic acid sodium salt] was tested, and the pIC50 was 6.37.
`Nc1c(/N=N/c2ccccc2OCc2ccncc2)cc(S(=O)(=O)O)c2ccccc12` [Example 141, 4-amino-3-[2-(pyridine-4-ylmethoxy)phenylazo]naphthalene-1-sulfonic acid sodium salt] showed a pIC50 of 6.13.
`Nc1c(/N=N/c2ccccc2)cc(S(=O)(=O)O)c2ccccc12` [Example 93, 4-amino-3-phenylazonaphthalene-1-sulfonic acid sodium salt] was tested, and the pIC50 was 6.12.
Compound `Nc1c(/N=N/c2ccc(-c3cc(Cl)ccc3O)nc2)cc(S(=O)(=O)O)c2ccccc12` [Example 70, 4-amino-3-[6-(5-chloro-2-hydroxyphenyl)pyridine-3-ylazo]naphthalene-1-sulfonic acid sodium salt] has a pIC50 of 6.15.
With `Nc1c(/N=N/c2ccc(F)cc2Cl)cc(S(=O)(=O)O)c2ccccc12` [Example 119, 4-amino-3-(2-chloro-4-fluorophenylazo)naphthalene-1-sulfonic acid sodium salt] the pIC50 was 6.13.
Work on `Nc1c(/N=N/c2ccc(F)cc2F)cc(S(=O)(=O)O)c2ccccc12` [Example 116, 4-amino-3-(2,4-difluorophenylazo)naphthalene-1-sulfonic acid sodium salt] yielded a pIC50 of 5.91.
`Nc1c(/N=N/c2ccc(Cl)c(Cl)c2)cc(S(=O)(=O)O)c2ccccc12` [Example 112, 4-amino-3-(3,4-dichlorophenylazo)naphthalene-1-sulfonic acid sodium salt] showed a pIC50 of 6.28.
`N#Cc1cccc(-c2ccc(/N=N/c3cc(S(=O)(=O)O)c4ccccc4c3N)cn2)c1` [Example 44, 4-amino-3-[6-(3-cyanophenyl)pyridine-3-ylazo]naphthalene-1-sulfonic acid sodium salt] showed a pIC50 of 6.23.
In the case of `Nc1c(/N=N/c2ccc(-c3cccc(Cl)c3)nc2)cc(S(=O)(=O)O)c2ccccc12` [Example 23, 4-amino-3-[6-(3-chlorophenyl)pyridine-3-ylazo]naphthalene-1-sulfonic acid sodium salt], the pIC50 was 6.49.
`Nc1c(/N=N/c2ccc(-c3csc4ccccc34)nc2)cc(S(=O)(=O)O)c2ccccc12` [Example 41, 4-amino-3-(6-benzo[b]thiophene-3-ylpyridine-3-ylazo)naphthalene-1-sulfonic acid sodium salt] showed a pIC50 of 6.68.
Compound `CCCCOc1c(C=O)cc(C)cc1-c1ccc(/N=N/c2cc(S(=O)(=O)O)c3ccccc3c2N)cn1` [Example 92, 4-amino-3-[6-(3-formyl-2-butoxy-5-methylphenyl)pyridine-3-ylazo]naphthalene-1-sulfonic acid sodium salt] has a pIC50 of 6.79.
Work on `Nc1c(/N=N/c2ccc(-c3cccc4ccccc34)nc2)cc(S(=O)(=O)O)c2ccccc12` [Example 38, 4-amino-3-(6-naphthalene-1-ylpyridine-3-ylazo)naphthalene-1-sulfonic acid sodium salt] yielded a pIC50 of 6.63.
`CCOC(=O)c1ccc(/N=N/c2cc(S(=O)(=O)O)c3ccccc3c2N)cc1` [Example 103, ethyl 4-(1-amino-4-sulfonaphthalene-2-ylazo)benzoate sodium salt] showed a pIC50 of 6.05.
For `Nc1c(/N=N/c2ccc(-c3ccccc3OCCCO)nc2)cc(S(=O)(=O)O)c2ccccc12` [Example 66, 4-amino-3-{6-[2-(3-hydroxypropoxy)phenyl]pyridine-3-ylazo}naphthalene-1-sulfonic acid sodium salt], the pIC50 was 6.63.
Work on `Nc1c(/N=N/c2cnc(-c3ccccc3)c(-c3ccccc3)c2)cc(S(=O)(=O)O)c2ccccc12` [Example 89, 4-amino-3-(5,6-diphenylpyridine-3-ylazo)naphthalene-1-sulfonic acid sodium salt] yielded a pIC50 of 6.30.
In the case of `CCOc1c(C=O)cc(C)cc1-c1ccc(/N=N/c2cc(S(=O)(=O)O)c3ccccc3c2N)cn1` [Example 149, 4-amino-3-[6-(2-ethoxy-3-formyl-5-methylphenyl)pyridine-3-ylazo]naphthalene-1-sulfonic acid sodium salt], the pIC50 was 6.74.
`Nc1c(/N=N/c2ccc(Br)cc2)cc(S(=O)(=O)O)c2ccccc12` [Example 110, 4-amino-3-(4-bromophenylazo)naphthalene-1-sulfonic acid sodium salt] showed a pIC50 of 6.65.
`Nc1c(/N=N/c2ccc(C(=O)Nc3ccc(CC(C(=O)O)C(=O)O)cc3)cc2)cc(S(=O)(=O)O)c2ccccc12` [Example 124, 2-{4-[4-(1-amino-4-sulfonaphthalene-2-ylazo)benzoylamino]benzyl}malonic acid trisodium salt] gave a pIC50 of 5.40.
In the case of `Nc1c(/N=N/c2ccc(-c3cccc(-c4ccccc4)c3)nc2)cc(S(=O)(=O)O)c2ccccc12` [Example 42, 4-amino-3-(6-biphenyl-3-ylpyridine-3-ylazo)naphthalene-1-sulfonic acid sodium salt], the pIC50 was 6.11.
Work on `Nc1c(/N=N/c2ccc(Cl)cc2)cc(S(=O)(=O)O)c2ccccc12` [Example 100, 4-amino-3-(4-chlorophenylazo)naphthalene-1-sulfonic acid sodium salt] yielded a pIC50 of 6.39.
With `Nc1c(/N=N/c2c(Cl)cc(Cl)cc2Cl)cc(S(=O)(=O)O)c2ccccc12` [Example 115, 4-amino-3-(2,4,6-trichlorophenylazo)naphthalene-1-sulfonic acid sodium salt] the pIC50 was 6.53.
With `COc1ccc(/N=N/c2cc(S(=O)(=O)O)c3ccccc3c2N)cn1` [Example 2, 4-amino-3-(6-methoxypyridine-3-ylazo)naphthalene-1-sulfonic acid sodium salt] the pIC50 was 6.24.
Compound `Nc1c(/N=N/c2ccc(-c3ccccc3-c3ccccc3)nc2)cc(S(=O)(=O)O)c2ccccc12` [Example 12, 4-amino-3-(6-biphenyl-2-ylpyridine-3-ylazo)naphthalene-1-sulfonic acid sodium salt] has a pIC50 of 6.94.
